Target: purified human Factor XIa (Homo sapiens (Human), UniProt P03951)
Experiment: Factor XIa Assay
Format: biochemical
Settings: substrate Z-Gly-Pro-Arg-AFC; value printed in the compound table of Example 12; read-out: FXIa Ki
Protocol: The effectiveness of a compound of the present invention as an inhibitor of Coagulation Factor XIa can be determined using a relevant purified serine protease, and an appropriate synthetic substrate. The rate of hydrolysis of the chromogenic or fluorogenic substrate by the relevant serine protease was measured both in the absence and presence of compounds of the present invention. Assays were conducted at room temperature or at 37° C. […] A decrease in the rate of fluorescence change in the presence of inhibitor is indicative of enzyme inhibition. Such methods are known to one skilled in the art. The results of this assay are expressed as the inhibitory constant, Ki.
Factor XIa determinations were made in 50 mM HEPES buffer at pH 7.4 containing 150 mM NaCl, 5 mM CaCl2, and 0.1% PEG 8000 (polyethylene glycol; JT Baker or Fisher Scientific).
Times required to achieve equilibration between enzyme and inhibitor were determined in control experiments. Initial velocities of product formation in the absence (Vo) or presence of inhibitor (Vi) were measured. […]

purified human Factor XIa, sequence (P03951 388-625): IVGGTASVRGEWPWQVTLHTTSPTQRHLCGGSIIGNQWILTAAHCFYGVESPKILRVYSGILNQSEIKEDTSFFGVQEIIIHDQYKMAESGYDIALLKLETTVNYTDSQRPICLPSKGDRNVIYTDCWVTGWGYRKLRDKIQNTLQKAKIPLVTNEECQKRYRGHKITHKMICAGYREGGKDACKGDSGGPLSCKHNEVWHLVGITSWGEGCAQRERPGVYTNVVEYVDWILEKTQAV
purified human Factor XIa, sequence (P03951 19-387 partner): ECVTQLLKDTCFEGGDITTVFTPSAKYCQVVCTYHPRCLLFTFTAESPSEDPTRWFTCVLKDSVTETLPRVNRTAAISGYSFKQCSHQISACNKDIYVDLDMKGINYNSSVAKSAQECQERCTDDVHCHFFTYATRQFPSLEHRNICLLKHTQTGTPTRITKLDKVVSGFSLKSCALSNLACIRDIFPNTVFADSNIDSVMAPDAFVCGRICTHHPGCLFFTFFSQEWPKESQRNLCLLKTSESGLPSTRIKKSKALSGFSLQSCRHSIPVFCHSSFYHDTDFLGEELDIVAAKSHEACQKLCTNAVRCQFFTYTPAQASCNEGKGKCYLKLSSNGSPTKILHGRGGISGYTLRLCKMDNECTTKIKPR

O=C(O)c1ccc(-c2cnc(C3CCc4cc(-c5cc(Cl)ccc5-n5cnnn5)c[n+]([O-])c43)[nH]2)s1 (stereo not shown) [Example 12, 5-(2-{3-[5-chloro-2-(1H-tetrazol-1-yl)phenyl]-1-oxido-6,7-dihydro-5H-cyclopenta[b]pyridin-7-yl}-1H-imidazol-5-yl)thiophene-2-carboxylic acid]
Ki: 3.08 nM

Reference: patent US10081617B2, “Factor XIa inhibitors” (MERCK SHARP & DOHME CORP., priority 2015, dated 2018)
